Data from PMC5218480 (PLoS ONE, 2017).

System: MV-4-11 cells
Experiment: Gene expression microarray analysis (Affymetrix PrimeView) and GSEA
Type: cell-based, human
Parameters: RFU PODN (11730768_x_at) / Fold change /veh PODN (11730768_x_at) / RFU LINC00158 (11744669_a_at) / Fold change /veh LINC00158 (11744669_a_at) / RFU DUSP10 (11751237_a_at) / Fold change /veh DUSP10 (11751237_a_at) / RFU ID3 (11757404_x_at) / Fold change /veh ID3 (11757404_x_at) / RFU PLEKHG5 (11737974_s_at) / Fold change /veh PLEKHG5 (11737974_s_at) / RFU LRRC4B (11730491_at) / Fold change /veh LRRC4B (11730491_at) / RFU GIMAP4 (11747438_a_at) / Fold change /veh GIMAP4 (11747438_a_at) / RFU KRT8 (11758183_x_at) / Fold change /veh KRT8 (11758183_x_at) / RFU CNN1 (11734310_a_at) / Fold change /veh CNN1 (11734310_a_at) / RFU VPS37D (11726825_at) / Fold change /veh VPS37D (11726825_at) / RFU C10orf10 (11716522_x_at) / Fold change /veh C10orf10 (11716522_x_at) / RFU KIR2DL2 /// KIR2DL4 /// KIR2DL5A /// KIR2DL5B /// KIR2DS1 /// KIR2DS2 /// KIR2DS3 /// KIR2DS4 /// KIR3DL3 /// KIR3DL3 /// KIR3DS1 (11738374_at) / Fold change /veh KIR2DL2 /// KIR2DL4 /// KIR2DL5A /// KIR2DL5B /// KIR2DS1 /// KIR2DS2 /// KIR2DS3 /// KIR2DS4 /// KIR3DL3 /// KIR3DL3 /// KIR3DS1 (11738374_at) / RFU C1QL1 (11718748_at) / Fold change /veh C1QL1 (11718748_at) / RFU TMPRSS4 (11747572_a_at) / Fold change /veh TMPRSS4 (11747572_a_at) / RFU HAMP (11756126_x_at) / Fold change /veh HAMP (11756126_x_at) / RFU RNFT2 (11725882_a_at) / Fold change /veh RNFT2 (11725882_a_at) / RFU NR4A2 (11747474_a_at) / Fold change /veh NR4A2 (11747474_a_at) / RFU ABCC12 (11746883_a_at) / Fold change /veh ABCC12 (11746883_a_at) / RFU TMEM136 (11760407_x_at) / Fold change /veh TMEM136 (11760407_x_at) / RFU CLDN22 /// WWC2 (11732394_at) / Fold change /veh CLDN22 /// WWC2 (11732394_at) / RFU HLA-DPB1 (11760878_x_at) / Fold change /veh HLA-DPB1 (11760878_x_at) / RFU SPINT1 (11716480_a_at) / Fold change /veh SPINT1 (11716480_a_at) / RFU GAP43 (11754022_s_at) / Fold change /veh GAP43 (11754022_s_at) / RFU A4GNT (11735810_at) / Fold change /veh A4GNT (11735810_at) / RFU PRB3 (11715151_x_at) / Fold change /veh PRB3 (11715151_x_at) / RFU TUBB4B (11761932_at) / Fold change /veh TUBB4B (11761932_at) / RFU CAPN14 (11732068_a_at) / Fold change /veh CAPN14 (11732068_a_at) / RFU TMCC2 (11721928_a_at) / Fold change /veh TMCC2 (11721928_a_at) / RFU IRGQ (11745062_a_at) / Fold change /veh IRGQ (11745062_a_at) / RFU FAM174B (11720279_a_at) / Fold change /veh FAM174B (11720279_a_at) / RFU TMPRSS4 (11748680_a_at) / Fold change /veh TMPRSS4 (11748680_a_at) / RFU FAM212B (11763350_a_at) / Fold change /veh FAM212B (11763350_a_at) / RFU PLEKHG5 (11743358_a_at) / Fold change /veh PLEKHG5 (11743358_a_at) / RFU ZSCAN30 (11745921_a_at) / Fold change /veh ZSCAN30 (11745921_a_at) / RFU CMKLR1 (11741424_a_at) / Fold change /veh CMKLR1 (11741424_a_at) / RFU LOC101060620 /// MAPK8IP1 (11723275_at) / Fold change /veh LOC101060620 /// MAPK8IP1 (11723275_at) / RFU SPTSSB (11747773_x_at) / Fold change /veh SPTSSB (11747773_x_at) / RFU PRSS12 (11739890_at) / Fold change /veh PRSS12 (11739890_at) / RFU BIN1 (11741810_x_at) / Fold change /veh BIN1 (11741810_x_at) / RFU WNT11 (11732464_a_at) / Fold change /veh WNT11 (11732464_a_at) / RFU C10orf10 (11716521_a_at) / Fold change /veh C10orf10 (11716521_a_at) / RFU C5orf56 (11738089_at) / Fold change /veh C5orf56 (11738089_at) / RFU CYB561 (11721691_x_at) / Fold change /veh CYB561 (11721691_x_at) / RFU ANKRD19P (11752326_a_at) / Fold change /veh ANKRD19P (11752326_a_at) / RFU OR2T12 /// OR2T33 /// OR2T8 (11738714_s_at) / Fold change /veh OR2T12 /// OR2T33 /// OR2T8 (11738714_s_at) / RFU VCAN (11748164_a_at) / Fold change /veh VCAN (11748164_a_at) / RFU JSRP1 (11732532_at) / Fold change /veh JSRP1 (11732532_at) / RFU KRTAP10-11 (11738290_x_at) / Fold change /veh KRTAP10-11 (11738290_x_at) / RFU MYO3A (11730013_a_at) / Fold change /veh MYO3A (11730013_a_at) / RFU EBF3 (11725865_a_at) / Fold change /veh EBF3 (11725865_a_at) / RFU CAMK2N1 (11719241_x_at) / Fold change /veh CAMK2N1 (11719241_x_at) / RFU C5orf56 (11738088_a_at) / Fold change /veh C5orf56 (11738088_a_at) / RFU OLFML3 (11715873_a_at) / Fold change /veh OLFML3 (11715873_a_at) / RFU LOC100653217 /// NTM (11731650_a_at) / Fold change /veh LOC100653217 /// NTM (11731650_a_at) / RFU MAPK11 (11762145_a_at) / Fold change /veh MAPK11 (11762145_a_at) / RFU FIZ1 (11724087_x_at) / Fold change /veh FIZ1 (11724087_x_at) / RFU OASL (11726364_x_at) / Fold change /veh OASL (11726364_x_at) / RFU SOX15 (11748057_x_at) / Fold change /veh SOX15 (11748057_x_at) / RFU CD79A (11719716_a_at) / Fold change /veh CD79A (11719716_a_at) / RFU HIST1H1D (11736915_at) / Fold change /veh HIST1H1D (11736915_at) / RFU CASKIN2 (11723855_a_at) / Fold change /veh CASKIN2 (11723855_a_at) / RFU LOC730098 (11760151_x_at) / Fold change /veh LOC730098 (11760151_x_at) / RFU OR4N2 (11742367_at) / Fold change /veh OR4N2 (11742367_at) / RFU PRRT2 (11749266_a_at) / Fold change /veh PRRT2 (11749266_a_at) / RFU SNX32 (11753110_a_at) / Fold change /veh SNX32 (11753110_a_at) / RFU CDHR5 (11726645_a_at) / Fold change /veh CDHR5 (11726645_a_at) / RFU RCAN1 (11760418_a_at) / Fold change /veh RCAN1 (11760418_a_at) / RFU FAM167A (11723789_a_at) / Fold change /veh FAM167A (11723789_a_at) / RFU FAM26E (11764081_at) / Fold change /veh FAM26E (11764081_at) / RFU ISYNA1 (11749810_s_at) / Fold change /veh ISYNA1 (11749810_s_at) / RFU ACY1 (11761880_at) / Fold change /veh ACY1 (11761880_at) / RFU 11764098_at / Fold change /veh 11764098_at / RFU SAMD14 (11745864_x_at) / Fold change /veh SAMD14 (11745864_x_at) / RFU NPB (11741838_a_at) / Fold change /veh NPB (11741838_a_at) / RFU TMPRSS6 (11731388_a_at) / Fold change /veh TMPRSS6 (11731388_a_at) / RFU KRTAP10-2 (11738614_at) / Fold change /veh KRTAP10-2 (11738614_at) / RFU ARHGAP8 /// PRR5-ARHGAP8 (11727945_x_at) / Fold change /veh ARHGAP8 /// PRR5-ARHGAP8 (11727945_x_at) / RFU KRTAP5-7 /// NADSYN1 (11734609_at) / Fold change /veh KRTAP5-7 /// NADSYN1 (11734609_at) / RFU RASL12 (11751679_a_at) / Fold change /veh RASL12 (11751679_a_at) / RFU CDKN2B (11736163_a_at) / Fold change /veh CDKN2B (11736163_a_at) / RFU PRF1 (11729649_at) / Fold change /veh PRF1 (11729649_at) / RFU, ZNF638 /// ZNF638-IT1 / Fold change vs veh, ZNF638 /// ZNF638-IT1 / RFU, PANK3 / Fold change vs veh, PANK3 / RFU, SH3YL1 / Fold change vs veh, SH3YL1 / RFU, ZEB2 / Fold change vs veh, ZEB2 / RFU, NRIP1 / Fold change vs veh, NRIP1 / RFU, PTTG1IP / Fold change vs veh, PTTG1IP / RFU, CAPN2 / Fold change vs veh, CAPN2 / RFU, MED14 / Fold change vs veh, MED14 / RFU, SNORA58 / Fold change vs veh, SNORA58 / RFU, C1orf63 / Fold change vs veh, C1orf63 / RFU, LRRFIP1 / Fold change vs veh, LRRFIP1 / RFU, NDUFAF7 / Fold change vs veh, NDUFAF7 / RFU, SLC12A2 / Fold change vs veh, SLC12A2 / RFU, IBTK / Fold change vs veh, IBTK / RFU, ESF1 / Fold change vs veh, ESF1 / Fold change vs veh, TMEM50B / RFU, TAOK1 / Fold change vs veh, TAOK1 / RFU, ACBD3 / Fold change vs veh, ACBD3 / RFU, TMA16 / Fold change vs veh, TMA16 / RFU, RWDD3 / Fold change vs veh, RWDD3 / RFU, BCAT1 / Fold change vs veh, BCAT1 / RFU, EDEM3 / Fold change vs veh, EDEM3 / RFU, TMEM33 / Fold change vs veh, TMEM33 / RFU, WDR75 / Fold change vs veh, WDR75 / RFU, AHCTF1 / Fold change vs veh, AHCTF1 / RFU, TFRC / Fold change vs veh, TFRC / RFU, ZDHHC17 / Fold change vs veh, ZDHHC17 / RFU, NOM1 / Fold change vs veh, NOM1 / RFU, ARL8B / Fold change vs veh, ARL8B / RFU, ZBTB11 / Fold change vs veh, ZBTB11 / RFU, TAMM41 / Fold change vs veh, TAMM41 / RFU, KIAA1704 /// LOC100996395 / Fold change vs veh, KIAA1704 /// LOC100996395 / RFU, ING1 / Fold change vs veh, ING1 / RFU, TRMT61B / Fold change vs veh, TRMT61B / RFU, FUBP3 / Fold change vs veh, FUBP3 / RFU, TP53 / Fold change vs veh, TP53 / RFU, TNKS2 / Fold change vs veh, TNKS2 / RFU, ZFP14 / Fold change vs veh, ZFP14 / RFU, ACTR2 / Fold change vs veh, ACTR2 / RFU, PPP3R1 / Fold change vs veh, PPP3R1 / RFU, PIK3R1 / Fold change vs veh, PIK3R1 / RFU, HNRNPA1 / Fold change vs veh, HNRNPA1 / RFU, RNF170 / Fold change vs veh, RNF170 / RFU, ZNF28 / Fold change vs veh, ZNF28 / RFU, RNGTT / Fold change vs veh, RNGTT / RFU, OGT / Fold change vs veh, OGT / RFU, BRD1 / Fold change vs veh, BRD1 / RFU, MARS / Fold change vs veh, MARS / RFU, ZNF655 / Fold change vs veh, ZNF655 / RFU, FAHD1 / Fold change vs veh, FAHD1 / RFU, BDP1 / Fold change vs veh, BDP1 / RFU, LRRCC1 / Fold change vs veh, LRRCC1 / RFU, ARID1A / Fold change vs veh, ARID1A / RFU, ZNF146 / Fold change vs veh, ZNF146 / RFU, ZNF330 / Fold change vs veh, ZNF330 / RFU, GPN3 / Fold change vs veh, GPN3 / RFU, C9orf123 / Fold change vs veh, C9orf123 / RFU, N4BP2L2 / Fold change vs veh, N4BP2L2 / RFU, ARFIP1 / Fold change vs veh, ARFIP1 / RFU, FAM179B / Fold change vs veh, FAM179B / RFU, BCL10 / Fold change vs veh, BCL10 / RFU, UHRF1BP1L / Fold change vs veh, UHRF1BP1L / RFU, BET1 / Fold change vs veh, BET1 / RFU, CNOT2 / Fold change vs veh, CNOT2 / RFU, ZNF268 / Fold change vs veh, ZNF268 / Fold change vs veh, ZNF507 / RFU, DGCR2 / Fold change vs veh, DGCR2 / RFU, WDSUB1 / Fold change vs veh, WDSUB1 / Fold change vs veh, HSP90B1 /// MIR3652 / RFU, ADSS / Fold change vs veh, ADSS / RFU, GK / Fold change vs veh, GK / RFU, ZNF148 / Fold change vs veh, ZNF148 / RFU, TAF9 / Fold change vs veh, TAF9 / RFU, SLC1A5 / Fold change vs veh, SLC1A5 / RFU, SLMO2 / Fold change vs veh, SLMO2 / RFU, ABCC4 / Fold change vs veh, ABCC4 / RFU, LOC101060439 /// RAP1B / Fold change vs veh, LOC101060439 /// RAP1B / RFU, RFX7 / Fold change vs veh, RFX7 / RFU, GTPBP10 / Fold change vs veh, GTPBP10 / RFU, CNEP1R1 / Fold change vs veh, CNEP1R1 / RFU, BIVM-ERCC5 /// ERCC5 / Fold change vs veh, BIVM-ERCC5 /// ERCC5 / RFU, ILF3 / Fold change vs veh, ILF3 / RFU 11762660_at / Fold change /veh 11762660_at / RFU VCAN (11757783_s_at) / Fold change /veh VCAN (11757783_s_at) / RFU DDX43 (11728927_at) / Fold change /veh DDX43 (11728927_at) / RFU KRT8 (11758188_x_at) / Fold change /veh KRT8 (11758188_x_at) / RFU NKD1 (11759106_at) / Fold change /veh NKD1 (11759106_at) / RFU SRD5A1 (11742802_a_at) / Fold change /veh SRD5A1 (11742802_a_at) / RFU TPSAB1 /// TPSB2 (11721975_s_at) / Fold change /veh TPSAB1 /// TPSB2 (11721975_s_at) / RFU GSTM3 (11746129_a_at) / Fold change /veh GSTM3 (11746129_a_at) / RFU IL23R (11737362_x_at) / Fold change /veh IL23R (11737362_x_at) / RFU TMEM51 (11727254_a_at) / Fold change /veh TMEM51 (11727254_a_at) / RFU PIWIL2 (11732686_x_at) / Fold change /veh PIWIL2 (11732686_x_at) / RFU ORM1 (11744905_x_at) / Fold change /veh ORM1 (11744905_x_at) / RFU CCDC152 (11743942_at) / Fold change /veh CCDC152 (11743942_at) / RFU ECM1 (11717891_a_at) / Fold change /veh ECM1 (11717891_a_at) / RFU IL23R (11748794_a_at) / Fold change /veh IL23R (11748794_a_at) / RFU TNFAIP8L3 (11732012_x_at) / Fold change /veh TNFAIP8L3 (11732012_x_at) / RFU MBOAT4 (11741988_at) / Fold change /veh MBOAT4 (11741988_at) / RFU 11764193_at / Fold change /veh 11764193_at / RFU TMEM53 (11763286_at) / Fold change /veh TMEM53 (11763286_at) / RFU MAGEB2 (11727129_at) / Fold change /veh MAGEB2 (11727129_at) / RFU TMEM200A (11744735_a_at) / Fold change /veh TMEM200A (11744735_a_at) / RFU CCDC152 (11751479_a_at) / Fold change /veh CCDC152 (11751479_a_at) / RFU FAM211A (11726209_a_at) / Fold change /veh FAM211A (11726209_a_at) / RFU RGS16 (11746705_a_at) / Fold change /veh RGS16 (11746705_a_at) / RFU VCAN (11755009_s_at) / Fold change /veh VCAN (11755009_s_at) / RFU RHOB (11743442_s_at) / Fold change /veh RHOB (11743442_s_at) / RFU RGS16 (11720943_a_at) / Fold change /veh RGS16 (11720943_a_at) / RFU RGS16 (11720944_at) / Fold change /veh RGS16 (11720944_at) / RFU, VPS4B / Fold change vs veh, VPS4B / RFU, CREB1 / Fold change vs veh, CREB1 / RFU, DNAJC13 / Fold change vs veh, DNAJC13 / RFU, GNAQ / Fold change vs veh, GNAQ / RFU, CDK5R1 / Fold change vs veh, CDK5R1 / RFU, ZRANB3 / Fold change vs veh, ZRANB3 / RFU, CUL4A / Fold change vs veh, CUL4A / RFU, CCNY / Fold change vs veh, CCNY / RFU, UFL1 / Fold change vs veh, UFL1 / RFU, COG3 / Fold change vs veh, COG3 / RFU, DIAPH2 / Fold change vs veh, DIAPH2 / RFU, SKA2 / Fold change vs veh, SKA2 / RFU, AFF3 / Fold change vs veh, AFF3 / RFU, LMF1 / Fold change vs veh, LMF1 / RFU, IPO11 / Fold change vs veh, IPO11 / RFU, DFFB / Fold change vs veh, DFFB / RFU, FOXP1 / Fold change vs veh, FOXP1 / RFU, CARD8 / Fold change vs veh, CARD8 / RFU, STRN3 / Fold change vs veh, STRN3 / RFU, ADK / Fold change vs veh, ADK / RFU, RASSF2 / Fold change vs veh, RASSF2 / RFU, WIPF1 / Fold change vs veh, WIPF1 / RFU, LARP1B / Fold change vs veh, LARP1B / RFU, RASA1 / Fold change vs veh, RASA1 / RFU, RB1 / Fold change vs veh, RB1 / RFU, PPFIA1 / Fold change vs veh, PPFIA1 / RFU, MAT2A / Fold change vs veh, MAT2A / RFU, CCT5 / Fold change vs veh, CCT5 / RFU, WDR92 / Fold change vs veh, WDR92 / RFU, CUX1 / Fold change vs veh, CUX1 / RFU, TTC7A / Fold change vs veh, TTC7A / RFU, TMEM135 / Fold change vs veh, TMEM135 / RFU, DEPTOR / Fold change vs veh, DEPTOR / RFU, CPM / Fold change vs veh, CPM / RFU, DNAJB6 / Fold change vs veh, DNAJB6 / RFU, CACNA2D3 / Fold change vs veh, CACNA2D3 / RFU, DTX4 / Fold change vs veh, DTX4 / RFU, TFCP2 / Fold change vs veh, TFCP2 / RFU, GMCL1 /// GMCL1P1 / Fold change vs veh, GMCL1 /// GMCL1P1 / RFU, AEBP2 / Fold change vs veh, AEBP2 / RFU, SNHG1 /// SNORD22 /// SNORD25 /// SNORD26 /// SNORD27 /// SNORD28 /// SNORD29 /// SNORD31 / Fold change vs veh, SNHG1 /// SNORD22 /// SNORD25 /// SNORD26 /// SNORD27 /// SNORD28 /// SNORD29 /// SNORD31 / Fold change (Aza/veh), C12orf56 (ProbeSet 11735607_a_at) / Fold change (ACY-1035/veh), C12orf56 (ProbeSet 11735607_a_at) / Fold change (Aza/veh), FGFR1OP (ProbeSet 11751329_s_at) / Fold change (ACY-1035/veh), FGFR1OP (ProbeSet 11751329_s_at) / Fold change (Aza/veh), VPS36 (ProbeSet 11739960_a_at) / Fold change (ACY-1035/veh), VPS36 (ProbeSet 11739960_a_at) / RFU SYPL1 (11715823_x_at) / Fold change /veh SYPL1 (11715823_x_at) / RFU IGFBP7 (11715501_s_at) / Fold change /veh IGFBP7 (11715501_s_at) / RFU REEP3 (11722064_at) / Fold change /veh REEP3 (11722064_at) / RFU IGLL1 (11728026_x_at) / Fold change /veh IGLL1 (11728026_x_at): dose or concentration left out as unconfirmed
Conditions: ProbeSet 11756954_s_at; LIST B

Structure (SMILES): Nc1ncn([C@@H]2O[C@H](CO)[C@@H](O)[C@H]2O)c(=O)n1 [azacitidine]
- RFU, ZEB2: 1324.44 RFU
